According to patent US20200179428A1, “CYCLIC PHOSPHATE SUBSTITUTED NUCLEOSIDE DERIVATIVES AND METHODS OF USE THEREOF FOR THE TREATMENT OF VIRAL DISEASES” (priority 2016, published 2020):
Read-outs that look alike come from different tables or passages of the source.

Experiments:
Format in all cases: cell-based
replicon cells = assay: Cytotoxicity MTS assay (CellTiter 96 Aqueous One Solution) in replicon cells; conditions: EDU; read-out: CC50 (EDU) Range
replicon cells (1b-Con1) = assay: Replicon activity assay (replicon RNA level by real-time RT-PCR, Taqman); conditions: HCV replicon genotype 1b, read-out: EC50 (1b) Range
How it was run: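 HCV 1b-Con1 replicon cells treated 3 days with 10-point twofold serial dilutions in triplicate (0.5% DMSO, 10% FBS); replicon RNA quantified by Taqman real-time RT-PCR normalised to GAPDH, EC50 derived. Cytotoxicity by MTS read-out at day 3 on identically treated cells.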

[1] = Cytotoxicity MTS assay (CellTiter 96 Aqueous One Solution) in replicon cells; conditions: HCV replicon cells (1b-Con1); EDU; read-out: CC50 (EDU) Range

SMILES | CC50 (replicon cells) | EC50 (replicon cells (1b-Con1)) | CC50 at 3 days [1] | EC50 (replicon cells (1b-Con1); Hepatitis C virus)
C#C[C@]1(C)[C@@H]2OP(=O)(OCC(C)CC(=O)OC3CCCC3)OC[C@H]2O[C@H]1n1ccc(=O)[nH]c1=O (single isomer, unassigned) [Compound 3B] | > 50 µM | ≤ 0.25 µM | – | –
CCOC(=O)C(C)CCOP1(=O)OC[C@H]2O[C@@H](n3ccc(=O)[nH]c3=O)[C@](C)(N)[C@@H]2O1 (single isomer, unassigned) [Compound 5B] | > 50 µM | > 10 µM | – | –
C#C[C@]1(C)[C@@H]2OP(=O)(OCC(C)CC(=O)OC(C)C)OC[C@H]2O[C@H]1n1ccc(=O)[nH]c1=O (single isomer, unassigned) [Compound 6A1] | > 50 µM | > 10 µM | – | –
C#C[C@]1(C)[C@@H]2OP(=O)(OCC(C)CC(=O)OC(C)C)OC[C@H]2O[C@H]1n1ccc(=O)[nH]c1=O (single isomer, unassigned) [Compound 6A2] | > 50 µM | > 10 µM | – | –
C#C[C@]1(C)[C@@H]2OP(=O)(OCC(C)CC(=O)OC(C)C)OC[C@H]2O[C@H]1n1ccc(=O)[nH]c1=O (single isomer, unassigned) [Compound 6B1] | > 50 µM | 1 to 10 µM | – | –
C#C[C@]1(C)[C@@H]2OP(=O)(OCC(C)CC(=O)OC(C)C)OC[C@H]2O[C@H]1n1ccc(=O)[nH]c1=O (single isomer, unassigned) [Compound 6B2] | > 50 µM | 1 to 10 µM | – | –
C#C[C@@]1(O)[C@@H]2OP(=O)(OCC[C@@H](C)C(=O)OC(C)C)OC[C@H]2O[C@H]1n1ccc(=O)[nH]c1=O (single isomer, unassigned) [Compound 7B1] | > 50 µM | 0.25 to 1 µM | – | –
C#C[C@@]1(O)[C@@H]2OP(=O)(OCC[C@H](C)C(=O)OC(C)C)OC[C@H]2O[C@H]1n1ccc(=O)[nH]c1=O (single isomer, unassigned) [Compound 7B2] | > 50 µM | 1 to 10 µM | – | –
C#C[C@@]1(O)[C@@H]2OP(=O)(OCCC(C)C(=O)OC3CCCC3)OC[C@H]2O[C@H]1n1ccc(=O)[nH]c1=O (single isomer, unassigned) [Compound 8A2] | > 50 µM | ≤ 0.25 µM | – | –
C#C[C@@]1(O)[C@@H]2OP(=O)(OCCC(C)C(=O)OC3CCCC3)OC[C@H]2O[C@H]1n1ccc(=O)[nH]c1=O (single isomer, unassigned) [Compound 8B1] | > 50 µM | ≤ 0.25 µM | – | –
C#C[C@@]1(O)[C@@H]2OP(=O)(OCC[C@H](C)C(=O)OC3CCCC3)OC[C@H]2O[C@H]1n1ccc(=O)[nH]c1=O (single isomer, unassigned) [Compound 8B2] | > 50 µM | 0.25 to 1 µM | – | –
C#C[C@@]1(O)[C@@H]2OP(=O)(OCCC(C)C(=O)OC3CCCC3)OC[C@H]2O[C@H]1n1ccc(=O)[nH]c1=O (single isomer, unassigned) [Compound 8B] | > 50 µM | ≤ 0.25 µM | – | –
CC(C)OC(=O)C(C)CCOP1(=O)OC[C@H]2O[C@@H](n3ccc(=O)[nH]c3=O)[C@](C)(N)[C@@H]2O1 (single isomer, unassigned) [Compound 10A2] | > 50 µM | > 10 µM | – | –
CC(C)OC(=O)C(C)CCOP1(=O)OC[C@H]2O[C@@H](n3ccc(=O)[nH]c3=O)[C@](C)(N)[C@@H]2O1 (single isomer, unassigned) [Compound 10B1] | > 50 µM | > 10 µM | – | –
CC(C)OC(=O)C(C)CCOP1(=O)OC[C@H]2O[C@@H](n3ccc(=O)[nH]c3=O)[C@](C)(N)[C@@H]2O1 (single isomer, unassigned) [Compound 10B2] | > 50 µM | > 10 µM | – | –
CC(C)OC(=O)C(C)CCOP1(=O)OC[C@H]2O[C@@H](n3ccc(=O)[nH]c3=O)[C@](C)(N)[C@@H]2O1 (single isomer, unassigned) [Compound 10B] | > 50 µM | > 10 µM | – | –
CC(CCOP1(=O)OC[C@H]2O[C@@H](n3ccc(=O)[nH]c3=O)[C@](C)(N)[C@@H]2O1)C(=O)OC1CCCC1 (single isomer, unassigned) [Compound 14A2] | > 50 µM | > 10 µM | – | –
CC(CCOP1(=O)OC[C@H]2O[C@@H](n3ccc(=O)[nH]c3=O)[C@](C)(N)[C@@H]2O1)C(=O)OC1CCCC1 (single isomer, unassigned) [Compound 14B1] | > 50 µM | 1 to 10 µM | – | –
CC(CCOP1(=O)OC[C@H]2O[C@@H](n3ccc(=O)[nH]c3=O)[C@](C)(N)[C@@H]2O1)C(=O)OC1CCCC1 (single isomer, unassigned) [Compound 14B2] | > 50 µM | 1 to 10 µM | – | –
CC(CCOP1(=O)OC[C@H]2O[C@@H](n3ccc(=O)[nH]c3=O)[C@](C)(N)[C@@H]2O1)C(=O)OC1CCCC1 (single isomer, unassigned) [Compound 14B] | > 50 µM | > 10 µM | – | –
CC(C)OC(=O)[C@@H](C)CCOP1(=O)OC[C@H]2O[C@@H](n3cnc4c(N)ncnc43)[C@](C)(Cl)[C@@H]2O1 (single isomer, unassigned) [Compound 35B1] | > 50 µM | ≤ 0.25 µM | – | –
CC(C)OC(=O)C(C)CCOP1(=O)OC[C@H]2O[C@@H](n3cnc4c(N)ncnc43)[C@](C)(Cl)[C@@H]2O1 (single isomer, unassigned) [Compound 35B2] | > 50 µM | ≤ 0.25 µM | – | –

SMILES | CC50 (replicon cells) | EC50 (replicon cells (1b-Con1)) | CC50 at 3 days [1] | EC50 (replicon cells (1b-Con1); Hepatitis C virus)
CC(C)OC(=O)C(CCO[P@@]1(=O)OC[C@H]2O[C@@H](n3cnc4c(N)ncnc43)[C@](C)(Cl)[C@@H]2O1)C(=O)OC(C)C [Compound 70A] | – | – | > 50 µM | 0.25 to 1 µM
CC(C)OC(=O)C(CCO[P@]1(=O)OC[C@H]2O[C@@H](n3cnc4c(N)ncnc43)[C@](C)(Cl)[C@@H]2O1)C(=O)OC(C)C [Compound 70B] | – | – | > 50 µM | 1 to 10 µM
CC(C)OC(=O)[C@@H](C)CCO[P@@]1(=O)OC[C@H]2O[C@@H](n3cnc4c(N)ncnc43)[C@](C)(C#N)[C@@H]2O1 [Compound 71A] | – | – | > 50 µM | > 10 µM
CC(C)OC(=O)[C@@H](C)CCO[P@]1(=O)OC[C@H]2O[C@@H](n3cnc4c(N)ncnc43)[C@](C)(C#N)[C@@H]2O1 [Compound 71B] | – | – | > 50 µM | 1 to 10 µM
C#C[C@]1(C)[C@@H]2O[P@@](=O)(OCC[C@H](C)C(=O)OC(C)C)OC[C@H]2O[C@H]1n1cnc2c(N)ncnc21 [Compound 72A] | – | – | > 50 µM | > 10 µM
C#C[C@]1(C)[C@@H]2O[P@](=O)(OCC[C@H](C)C(=O)OC(C)C)OC[C@H]2O[C@H]1n1cnc2c(N)ncnc21 [Compound 72B] | – | – | > 50 µM | 0.25 to 1 µM
CC(C)OC(=O)[C@@H](C)CCO[P@@]1(=O)OC[C@H]2O[C@@H](n3cnc4c(N)ncnc43)[C@](C)(N)[C@@H]2O1 [Compound 73A] | – | – | > 50 µM | > 10 µM
CC(C)OC(=O)[C@@H](C)CCO[P@]1(=O)OC[C@H]2O[C@@H](n3cnc4c(N)ncnc43)[C@](C)(N)[C@@H]2O1 [Compound 73B] | – | – | > 50 µM | 1 to 10 µM
C#C[C@]1(C)[C@@H]2O[P@@](=O)(OCC(CC(=O)OC(C)C)N(C)C(=O)OC(C)(C)C)OC[C@H]2O[C@H]1n1ccc(=O)[nH]c1=O (stereo partly shown) [Compound 74A1] | – | – | > 50 µM | > 10 µM
C#C[C@]1(C)[C@@H]2O[P@](=O)(OCC(CC(=O)OC(C)C)N(C)C(=O)OC(C)(C)C)OC[C@H]2O[C@H]1n1ccc(=O)[nH]c1=O (stereo partly shown) [Compound 74B] | – | – | > 50 µM | > 10 µM
C#C[C@@]1(O)[C@@H]2OP(=O)(OCC[C@@H](OC)C(=O)OC(C)C)OC[C@H]2O[C@H]1n1ccc(=O)[nH]c1=O (stereo partly shown) [Compound 76] | – | – | > 50 µM | ≤ 0.25 µM
C#C[C@]1(C)[C@@H]2O[P@@](=O)(OCCC(C)C(=O)OC3CCCCC3)OC[C@H]2O[C@H]1n1ccc(=O)[nH]c1=O (stereo partly shown) [Compound 77A] | – | – | > 50 µM | 1 to 10 µM
C#C[C@]1(C)[C@@H]2O[P@](=O)(OCCC(C)C(=O)OC3CCCCC3)OC[C@H]2O[C@H]1n1ccc(=O)[nH]c1=O (stereo partly shown) [Compound 77B] | – | – | > 50 µM | ≤ 0.25 µM
CC(CCO[P@@]1(=O)OC[C@H]2O[C@@H](n3ccc(=O)[nH]c3=O)[C@](C)(N)[C@@H]2O1)C(=O)OC1CCCCC1 (stereo partly shown) [Compound 78A] | – | – | > 50 µM | > 10 µM
CC(CCO[P@]1(=O)OC[C@H]2O[C@@H](n3ccc(=O)[nH]c3=O)[C@](C)(N)[C@@H]2O1)C(=O)OC1CCCCC1 (stereo partly shown) [Compound 78B] | – | – | > 50 µM | 1 to 10 µM
CCCCCOC(=O)C(C)CCO[P@@]1(=O)OC[C@H]2O[C@@H](n3ccc(=O)[nH]c3=O)[C@](C)(N)[C@@H]2O1 (stereo partly shown) [Compound 79A] | – | – | > 50 µM | 1 to 10 µM
CCCCCOC(=O)C(C)CCO[P@]1(=O)OC[C@H]2O[C@@H](n3ccc(=O)[nH]c3=O)[C@](C)(N)[C@@H]2O1 (stereo partly shown) [Compound 79B] | – | – | > 50 µM | 1 to 10 µM
C#C[C@@]1(OC(=O)CCC)[C@@H]2O[P@@](=O)(OCC[C@@H](C)C(=O)OC(C)C)OC[C@H]2O[C@H]1n1ccc(=O)[nH]c1=O [Compound 83A1] | – | – | > 50 µM | ≤ 0.25 µM
C#C[C@@]1(OC(=O)CCCCCC)[C@@H]2O[P@@](=O)(OCC[C@@H](C)C(=O)OC(C)C)OC[C@H]2O[C@H]1n1ccc(=O)[nH]c1=O [Compound 84A1] | – | – | > 50 µM | ≤ 0.25 µM
C#C[C@@]1(OC(=O)CCC)[C@@H]2O[P@@](=O)(OCC[C@H](C)C(=O)OC(C)C)OC[C@H]2O[C@H]1n1ccc(=O)[nH]c1=O [Compound 85A2] | – | – | > 50 µM | ≤ 0.25 µM
CC(C)OC(=O)[C@H](C)CCOP1(=O)OC[C@@]2(F)O[C@@H](n3ccc(=O)[nH]c3=O)[C@](C)(O)[C@@H]2O1 (stereo partly shown) [Compound 86A] | – | – | > 50 µM | 1 to 10 µM
CC(C)OC(=O)[C@H](C)CCOP1(=O)OC[C@H]2O[C@@H](n3cnc4c(N)ncnc43)[C@](C)(F)[C@@H]2O1 (stereo partly shown) [Compound 88A] | – | – | > 50 µM | ≤ 0.25 µM
